Patent US6384026B1, “Macrocyclic polyamine lactones and derivatives thereof and their use as arthropod repellents” (Cornell Research Foundation, Inc., priority 1998, dated 2002)

How the values were obtained:
[1] = system: ladybird beetles (Harmonia axyridis); assay: Deterrency bioassays with predacious insects: ladybird beetles; assay type: in vivo; settings: synthetic samples
Excerpt: (§1) Synthetic samples of macrocycles PAML 681, PAML 908, and PAML 1362 (structure 6 of FIG. 3, wherein m, n, o, p, q, and r=7) as well as mixtures of synthetic PAML 681 and Vitamin E acetate were used in bioassays with various predacious insects, for example, ladybird beetles (Harmonia axyridis) and ants of the genus Crematogaster.

[2] = Isomerization (O-to-N acyl transfer) on storage, analysed by HPLC-MS; assay type: physicochemical; settings: substantially pure samples stored at 25° C. for 2 days
H. axyridis adults = assay: Feeding choice bioassay with ladybird beetle (treated vs control moth eggs); assay type: in vivo, Harmonia axyridis; settings: choice test, moth eggs treated topically with ethyl ether solution vs ethyl ether only
Method: The biological activity of synthetic PAML 681 was also evaluated in a feeding bioassay with a ladybird beetle. The bioassay was a choice test in which individual H. axyridis adults were presented with two offerings of an edible food item, for example, insect eggs of the moth Uthesisia ornatrix, of which one offering was treated by topical application of an ethyl ether solution of PAML 681, while the other offering (“control”) was treated with ethyl ether only. […] Similar experiments were performed with synthetic samples of PAML 908 and PAML 1362, as well as with mixtures of PAML 681 and alpha-tocopherol acetate.

[3] = system: ants of the genus Crematogaster; assay: Deterrency bioassays with predacious insects: ants; assay type: in vivo; settings: synthetic samples
Excerpt: as §1

beetles (Carabidae) = assay: Feeding tests with beetles (Carabidae); assay type: in vivo
[4] = system: Periplaneta americana (American cockroach); assay: Irritancy tests with cockroaches; assay type: in vivo
ants = assay: Tests with ants on pupal secretion and its tocopherol components; assay type: in vivo, Crematogaster cerasi; settings: E. borealis pupal secretion and components

monoamide formed (relative percentage of the total ion current) [2]	SMILES	activity as insect deterrent [1]	antifeedant activity (H. axyridis adults)	activity as insect deterrent [3]	insect repellent and deterrent activity (beetles (Carabidae))	insect repellent and deterrent activity (irritancy) [4]	deterrency in tests with ants (ants)
7%	CC1CCCCCCCCC(=O)OCCNC(C)CCCCCCCCC(=O)OCCNC(C)CCCCCCCCC(=O)OCCN1 (centres unmarked) [PAML 681]	highly active as insect deterrents	strong antifeedant activity	highly active as insect deterrents	strong insect repellent and deterrent	strong insect repellent and deterrent	
10%	CC1CCCCCCCCC(=O)OCCNC(C)CCCCCCCCC(=O)OCCNC(C)CCCCCCCCC(=O)OCCNC(C)CCCCCCCCC(=O)OCCN1 (centres unmarked) [PAML 908]	highly active as insect deterrents	strong antifeedant activity	highly active as insect deterrents			
	CC(=O)Oc1c(C)c(C)c2c(c1C)CCC(C)(CCC[C@H](C)CCC[C@H](C)CCCC(C)C)O2 (some centres unmarked) [vitamin E acetate, Vitamin E acetate]						essentially inactive
